Assay: in vitro
Settings: human, hela cells, % viability

| SMILES | viability at 28.5 h, 10 µM [%] | viability at 28.5 h, 10 µM (bulk resorufin, single well) [%] |
| --- | --- | --- |
| O=C(O)CC(NC(=O)C(c1ccccc1)c1ccccc1)c1ccco1 (centres unmarked) [CBK268729] | 109 | – |
| O=C(c1cc(S(=O)(=O)NCc2ccco2)c(Cl)cc1Cl)N1CCC1 [CBK305004] | 98 | – |
| Cc1ccccc1OCC(=O)Nc1ccc(CSc2ccccc2)cc1 [CBK264651] | 93 | – |
| O=C1CC(C(=O)Nc2ccc(Cl)cc2)c2c(nc(SCc3ccccc3F)[nH]c2=O)N1 (centres unmarked) [CBK294437] | 93.6 | – |
| Cc1cccc2[nH]c(-c3ccccc3)nc12 [CBK000110] | 92.9 | – |
| COc1ccc(OC)c(NC(=O)NCCc2c[nH]cn2)c1 [CBK269956] | 92.4 | – |
| COCc1nc2n(n1)CC(NC1CCc3ccccc3CC1)CC2 (centres unmarked) [CBK304737] | 96.1 | – |
| Nc1nnc(SCc2ccc(Br)cc2)s1 [CBK026356] | 109 | – |
| O=C(Nc1ccccc1C(=O)O)c1cc(S(=O)(=O)Nc2cccc(F)c2)ccc1Cl [CBK263242] | 84.7 | – |
| COc1ccc(NS(=O)(=O)c2ccc(Cl)cc2Cl)c(C(=O)NCc2ccccc2)c1 [CBK113943] | 98.4 | – |
| COc1cc([N+](=O)[O-])ccc1NC(=O)NCc1ccco1 [CBK266855] | 101 | – |
| O=[N+]([O-])c1ccccc1CN1CCC(N2CCCCC2)CC1 [CBK261852] | 88.7 | – |
| O=C1CC(N2CCC(c3nc4ccccc4o3)CC2)C(=O)N1Cc1cccs1 (centres unmarked) [CBK268735] | 104 | – |
| Cc1[nH]c(=O)[nH]c(=O)c1S(=O)(=O)Nc1ccc(S(N)(=O)=O)cc1 [CBK262123] | 91.7 | – |
| Cc1oc(-c2ccccc2)nc1C(=O)N1CCCN(C)CC1 [CBK073940C] | 105 | – |
| COCCC(=O)Nc1cnc(-c2ccc(F)c(Cl)c2)c(-c2cccnc2)n1 [CBK036938] | 95.2 | – |
| Cc1ccc(Nc2nc(Cn3nc(C(=O)O)c4ccccc4c3=O)cs2)cc1 [CBK296989] | 86.7 | – |
| O=C(Nc1ccc(F)cc1)c1[nH]c2ccccc2c1NS(=O)(=O)c1cc(Cl)sc1Cl [CBK050094] | 95 | – |
| Cc1ccccc1C(=O)NCCCNC(=O)c1ccccn1 [CBK269172] | 96.7 | – |
| COc1ccc(C[C@@H]2NC(=O)[C@@H]3CN(C(=O)c4ccc(OC)cc4)CCN3C2=O)cc1 [CBK289598] | 94.1 | – |
| Nc1ncc(-c2cccc(C(F)(F)F)c2)c2cccnc12 [CBK067590] | 89.2 | – |
| CC(=O)OCc1nc2cc(F)c(F)cc2[nH]1 [CBK110117] | 92.9 | – |
| COc1ccc2c(c1)nc(SCC(O)c1ccccc1)n2C (centres unmarked) [CBK262508] | 97.6 | – |

| SMILES | viability at 28.5 h, 10 µM [%] | viability at 28.5 h, 10 µM (bulk resorufin, single well) [%] |
| --- | --- | --- |
| CCOc1ccccc1C(=O)N1CCC(Cc2cccc(-c3cccs3)c2)(C(N)=O)CC1 [CBK285914] | 84.9 | – |
| Cc1ccc(C)c(C2CCCN2C(=O)c2ccc(=O)n(CC(=O)Nc3ccc(F)cc3)c2)c1 (centres unmarked) [CBK286495] | 93.4 | – |
| O=C(CSc1n[nH]c(=S)s1)NCCc1ccccc1 [CBK023445] | 99.2 | – |
| COc1ccccc1-c1nn2c(Cn3nnc4ccccc43)nnc2s1 [CBK268373] | 82.4 | – |
| Cc1nc(C)c(CCC(=O)Nc2ccc(N3CCOCC3)cc2)c(=O)[nH]1 [CBK306059] | 88.4 | – |
| O=C(Nc1cc(Cl)cc(Cl)c1)c1ccc([N+](=O)[O-])s1 [CBK066840] | 95.2 | – |
| Cc1cc(C)n(C(C)CC(=O)Nc2cccc(OC(C)C)c2)n1 (centres unmarked) [CBK281538] | 96.5 | – |
| CN1CCN(c2nc3c(N)ncn(CC(O)CO)c-3n2)CC1 (centres unmarked) [CBK262571] | 108 | – |
| O=C(/C=C/c1c[nH]c2ccccc12)c1ccc(C(=O)/C=C/c2c[nH]c3ccccc23)cc1 [CBK264224] | 106 | – |
| Cc1ccc(C(=O)C2=C(O)C(=O)N(Cc3cccnc3)C2c2cccc(Oc3ccccc3)c2)o1 (centres unmarked) [CBK264619] | 96.3 | – |
| O=C(Cn1cccn1)Nc1ccc2c(c1)CN(Cc1ccccc1)C2 [CBK281829] | 85.6 | – |
| CCN(CC)C(=O)c1[nH]c2ccccc2c1NS(=O)(=O)Cc1ccccc1 [CBK050107] | 108 | – |
| O=C(Nc1cccc2cc[nH]c12)c1cccc(F)c1Cl [CBK160074] | 99.8 | – |
| COCCC(=O)NC(Cc1cccs1)c1nccs1 (centres unmarked) [CBK282180] | 83.3 | – |
| Cc1[nH]nc(O)c1C(c1ccc(OC(=O)c2ccc(F)cc2)cc1)c1c(O)n[nH]c1C [CBK264816] | 96.8 | – |
| Cc1cccn2c(CN3CCC(O)CC3)c(C(=O)N3CCOCC3)nc12 [CBK306546] | 104 | – |
| c1csc(-c2cncc(NCCc3ccncc3)n2)c1 [CBK065797] | 105 | – |
| Cn1c(SCC(=O)Nc2ccc(Oc3ccc(Cl)cc3)cc2)nnc1-c1ccncc1 [CBK269654] | 95.6 | – |
| COCC1(C(=O)N2CC(=O)N(c3ccc(C)cc3)CC2C)CCC1 (centres unmarked) [CBK307606] | 89.1 | – |
| CCNS(=O)(=O)c1ccc(CCC(=O)Nc2ccc3c(c2)OCO3)cc1 [CBK268367] | 101 | – |
| CN(C)CCCC(=O)N1CCN(c2ncccn2)CC1 [CBK144523] | 116 | – |
| COc1cc(F)ccc1-c1nc(N)cc2cccnc12 [CBK081176] | 88.9 | – |
| COC(=O)n1c(=O)oc2ccc(Cl)cc21 [CBK026774] | 101 | – |

| SMILES | viability at 28.5 h, 10 µM [%] | viability at 28.5 h, 10 µM (bulk resorufin, single well) [%] |
| --- | --- | --- |
| O=C(NCCc1c[nH]cn1)N1CCN(Cc2ccccc2)CC1 [CBK155629] | 96.4 | – |
| Cc1cc(NCn2nnc3ccccc32)ccc1Br [CBK057031] | 88.2 | – |
| COc1c(Cl)cc(Cl)cc1C(=O)NC(=S)Nc1sc2c(c1C#N)CCCC2 [CBK268741] | 84.4 | – |
| O=C(N/N=C/c1ccc(C(=O)O)cc1)C(=O)Nc1cccc(Br)c1 [CBK262185] | 88.6 | – |
| Cn1cncc1C(=O)NC1CCCC1 [CBK200256] | 95.5 | – |
| Cc1cnc(COC(=O)N2C[C@@H](C)O[C@@H](C)C2)cn1 [CBK200124] | 81.4 | – |
| Cc1nn2cc(CNC(=O)C3Cc4ccccc4O3)nc2s1 (centres unmarked) [CBK307498] | 73.4 | – |
| O=C(O)C1CC=CCC1C(=O)Nc1ccc(S(=O)(=O)N2CCc3ccccc32)cc1 (centres unmarked) [CBK268122] | 108 | – |
| O=C(Nc1ccc(S(=O)(=O)N2CCOCC2)cc1)c1cc(-c2ccccc2)nc2ccccc12 [CBK264790] | 103 | – |
| Cc1ccnc(NCC2CCN(Cc3cc(=O)n4ccccc4n3)C2)c1 (centres unmarked) [CBK306003] | 97.3 | – |
| CCc1nc2ccc(C(=O)Nc3ccc(C(N)=O)cc3)cn2c1N(CCN(C)C)CC1CC1 [CBK145468] | 87.1 | – |
| COc1cc(/C=C2\C(=O)NC(=O)N(c3ccc([N+](=O)[O-])cc3)C2=O)cc(Cl)c1OCC(=O)O [CBK265431] | – | 98.3 |
| CN1CCC(O)(Cn2cnc3cc(-c4ccc(F)cc4)sc3c2=O)CC1 [CBK307434] | 101 | – |
| O=CNCCCc1nc2ccccc2n1CCc1ccccc1 [CBK269393] | 89.5 | – |
| O=C1Nc2ccc(/C=C/c3ccccc3)cc2C(=O)N2CC[C@H](NC(=O)N3CCOCC3)[C@@H]12 [CBK289344] | 98.1 | – |
| O=S(=O)(Nc1nnc(Cc2ccc(Cl)cc2)s1)c1ccc(Cl)cc1 [CBK200048] | 90.2 | – |
| OC(CN(c1ccccc1)c1ccccc1)Cn1cnc2ccccc21 (centres unmarked) [CBK261417] | 86.8 | – |
| CCCCn1c(S)nc2c(-c3ccccc3)c[nH]c2c1=O [CBK288505] | 96.2 | – |
| Cc1nnc(CN(C)C2CCN(CCCc3ccccc3)C2)n1C (centres unmarked) [CBK304000] | 115 | – |
| Cc1[nH]nc(C(F)(F)F)c1Cl [CBK025387] | 113 | – |
| CCOC(=O)c1sc(-c2ccc(C(C)(C)C)cc2)nc1O [CBK078538] | 92.3 | – |
| NC(=O)CSc1nnc(COc2cccc(Cl)c2)n1-c1ccccc1 [CBK267685] | 88.9 | – |
| Cc1c(C(=O)N2CCN(C3CCN(C)CC3)CC2)nnn1-c1cccc(C(F)(F)F)c1 [CBK149088] | 94.2 | – |

| SMILES | viability at 28.5 h, 10 µM [%] | viability at 28.5 h, 10 µM (bulk resorufin, single well) [%] |
| --- | --- | --- |
| Cn1c(CSCc2ccccc2)nnc1SCC(=O)c1ccc(Br)cc1 [CBK266565] | 94.9 | – |
| Cc1n[nH]c(C)c1CCC(=O)N/N=C/c1cccc(O)c1 [CBK262910] | 97.7 | – |
| CC(C)Oc1ncccc1OCCO [CBK001465] | 112 | – |
| O=C(COc1ccc(C(=O)c2ccc(F)cc2)cc1)c1ccc2c(c1)OCCO2 [CBK297536] | 111 | – |
| O=C(/C(=C\c1ccc([N+](=O)[O-])cc1)n1cncn1)c1ccc(Cl)cc1Cl [CBK262145] | 90.3 | – |
| CCN(CC)C(=O)CN1CCC(Oc2cncc(OCc3cccnc3)n2)C1 (centres unmarked) [CBK084461] | 92.4 | – |
| NC(=O)c1c(NC(=O)COc2ccccc2[N+](=O)[O-])sc2c1CCC2 [CBK262819] | 105 | – |
| CCN1CCN(Cc2c(C)nc3ccc(C)cc3c2O)CC1 [CBK263699] | 89.8 | – |
| CC(=O)OC(C(=O)O)C(OC(C)=O)C(=O)O (centres unmarked) [CBK261063] | 95.5 | – |
| Cn1ccc(C(=O)NC(Cc2cccs2)c2nccs2)n1 (centres unmarked) [CBK285135] | 91.4 | – |
| OCCN1CCN(CC(O)COc2ccc(Cl)cc2Cl)CC1 (centres unmarked) [CBK278198C] | 108 | – |
| Cc1nn(C)c2ncc(S(=O)(=O)NC(C)c3cccc(F)c3)cc12 (centres unmarked) [CBK305948] | 94.9 | – |
| O=C(CSc1nc(-c2ccco2)cc(C(F)(F)F)n1)NCc1ccco1 [CBK266091] | 95.1 | – |
| COc1cc(F)cc(OC2CCNCC2)c1NC(=O)Cc1cn(C)c2ccccc12 [CBK050245T] | 105 | – |
| O=C(CSc1ncccn1)Nc1cccc(Cl)c1 [CBK058217] | 87.6 | – |
| Cn1c2ccccc2c2nnc(SCCCC(=O)c3ccc4c(c3)OCCO4)nc21 [CBK268750] | 97.5 | – |
| Cc1cc(NC(=O)C2CC2)sc1C(=O)NC(C)c1ccc(F)cc1F (centres unmarked) [CBK296625] | 104 | – |
| O=C(CN1CCN(CCCc2c[nH]c3ccc(F)cc23)CC1)N(c1ccccc1)C1CCCCC1 [CBK074710] | 92.1 | – |
| O=C(CC1CCCC1)N1CCCC(c2cc3cccnc3[nH]2)C1 (centres unmarked) [CBK284940] | 98.6 | – |
| COc1ccc2[nH]c3c(c2c1)CCN(C(C)=O)C31CCN(CCOc2ccccc2)C1 (centres unmarked) [CBK039626] | 85.5 | – |

Source: publication PMC12040169 (PLOS Biology, 2025)
